The source of these data is article PMC11358092, “Caspofungin enhances the potency of rifampin against Gram-negative bacteria” (Frontiers in Microbiology, 2024).

Where a name gives a salt, the structure may show the parent alone.

The subject of the test is E. coli MG1655. As to the kind of experiment: High-throughput screening of FDA-approved drug library for antibiotic adjuvants (growth inhibition, OD600). In kind it is cell-based, Escherichia coli. Conditions: library drug alone, LB medium, 96-well, 8 h static culture at 37°C, relative to PMBN (positive) and DMSO (negative) controls, %, table head prints no unit. On the procedure: To screen for antibiotic adjuvants against GNB, […] library drugs or polymyxin B nonapeptide (PMBN, positive control) or dimethyl sulfoxide (DMSO, negative control). After 8 h of static culture at 37°C, the optical density at 600 nm (OD600) was measured using a microplate reader. Percentage inhibition was calculated as (ODN – ODX)/(ODN – ODP) × 100%, where ODX is the OD600 value for a test treated with drug X, and ODP and ODN are the OD600 values for the positive and negative control, respectively.
As to `Cc1cc(CC(C)CC(C)(C)C)n(O)c(=O)c1.NCCO` (stereo not shown) [Piroctone olamine], the “Growth inhibition, Compound” value is listed as 54%.

For `Cn1nnnc1SCC1=C(C(=O)O)N2C(=O)[C@@H](NC(=O)[C@H](OC=O)c3ccccc3)[C@H]2SC1` [Cefamandole nafate], the “Growth inhibition, Compound” value was 88%.

On to `CC1(C)S[C@@H]2[C@H](NC(=O)Cc3ccccc3)C(=O)N2[C@H]1C(=O)O` [Penicillin G sodium salt], for which the “Growth inhibition, Compound” value is 38%.

Turning to `C[C@H]1c2cccc(O)c2C(=O)C2=C(O)[C@]3(O)C(=O)C(C(N)=O)=C(O)[C@@H](N(C)C)[C@@H]3[C@@H](O)[C@@H]21` [Doxycycline], the “Growth inhibition, Compound” value is 118%.

On to `CO/N=C(\C(=O)N[C@@H]1C(=O)N2C(C(=O)O)=C(COC(C)=O)CS[C@H]12)c1csc(N)n1` [Cefotaxime sodium], for which the “Growth inhibition, Compound” value is listed as 99%.

Turning to `COc1ccc(Cc2cnc(N)nc2N)cc1OC` [Diaveridine], the “Growth inhibition, Compound” value amounted to 107%.

Take `CCN1CCN(C(=O)N[C@@H](C(=O)N[C@@H]2C(=O)N3[C@@H]2SC(C)(C)[C@@H]3C(=O)O)c2ccccc2)C(=O)C1=O` [Piperacillin sodium salt]: the “Growth inhibition, Compound” value came out at 88%.

As for `O=C1CN(/N=C/c2ccc([N+](=O)[O-])o2)C(=O)N1` [Nitrofurantoin], the “Growth inhibition, Compound” value was 98%.

As for `Oc1c(Br)cc(Br)c2cccnc12` [Broxyquinoline], the “Growth inhibition, Compound” value turned out to be 103%.

With `CC1CCc2cc(F)cc3c(=O)c(C(=O)O)cn1c23` (stereo not shown) [Flumequine], the “Growth inhibition, Compound” value was determined as 108%.

Regarding `O=c1[nH]c(=O)n([C@H]2C[C@H](O)[C@@H](CO)O2)cc1C(F)(F)F` [Trifluridine], the “Growth inhibition, Compound” value is 27%.

`COC(=O)N/N=C/c1c[n+]([O-])c2ccccc2[n+]1[O-]` [Carbadox]: the “Growth inhibition, Compound” value came out at 110%.

For `CN1C[C@@H]2C[C@H]1CN2c1cc2c(cc1F)c(=O)c(C(=O)O)cn2C1CC1.CS(=O)(=O)O` [Danofloxacin mesylate], the “Growth inhibition, Compound” value amounted to 100%.

In the case of `CNc1ncc(-c2ccc3c(=O)c(C(=O)O)cn(C4CC4)c3c2C)cc1C` [Ozenoxacin], the “Growth inhibition, Compound” value amounted to 106%.

In the case of `[H]/N=C(/N)N[C@H]1[C@H](O)[C@@H](O)[C@H](O[C@@H]2O[C@@H](C)[C@](O)(C=O)[C@H]2O[C@@H]2O[C@@H](CO)[C@H](O)[C@@H](O)[C@@H]2NC)[C@@H](N/C(N)=N\[H])[C@@H]1O` [Streptomycin sulfate], the “Growth inhibition, Compound” value amounted to 109%.

In the case of `[O-][n+]1ccccc1SSc1cccc[n+]1[O-]` [Dipyrithione], the “Growth inhibition, Compound” value turned out to be 104%.

With `Cc1c(-c2ccccc2)oc2c(C(=O)OCCN3CCCCC3)cccc2c1=O` [Flavoxate hydrochloride], the “Growth inhibition, Compound” value is given as 95%.

Turning to `Cc1cn([C@H]2C[C@H](F)[C@@H](CO)O2)c(=O)[nH]c1=O` [3'-Deoxy-3'-fluorothymidine], the “Growth inhibition, Compound” value is reported as 70%.

For the compound `CO/N=C(\C(=O)N[C@@H]1C(=O)N2C(C(=O)O)=C(CSc3nc(C)c(CC(=O)O)s3)CS[C@H]12)c1csc(N)n1` [Cefodizime Sodium], the “Growth inhibition, Compound” value is given as 88%.

Turning to `CN[C@@H]1[C@H](O[C@H]2[C@H](O[C@H]3[C@H](O)[C@@H](O)[C@H](NC(=N)N)[C@@H](O)[C@@H]3NC(=N)N)O[C@@H](C)[C@]2(O)CO)O[C@@H](CO)[C@H](O)[C@H]1O` [Dihydrostreptomycin sulfate], the “Growth inhibition, Compound” value is listed as 106%.

Consider `CO/N=C(\C(=O)N[C@@H]1C(=O)N2C(C(=O)OCOC(=O)C(C)(C)C)=C(Cn3nnc(C)n3)CS[C@H]12)c1csc(N)n1` [Cefteram pivoxil], for which the “Growth inhibition, Compound” value was 110%.

Turning to `CC1(C)S[C@@H]2[C@H](NC(=O)[C@H](NC(=O)N3CCNC3=O)c3ccccc3)C(=O)N2[C@H]1C(=O)O` [Azlocillin sodium], the “Growth inhibition, Compound” value is listed as 94%.

Regarding `CCCCCCCCN=c1ccn(CCCCCCCCCCn2ccc(=NCCCCCCCC)cc2)cc1` [Octenidine Dihydrochloride], the “Growth inhibition, Compound” value was 91%.

`CC1CCc2c(N3CCC(O)CC3)c(F)cc3c(=O)c(C(=O)O)cn1c23` (stereo not shown) [Nadifloxacin]: the “Growth inhibition, Compound” value came out at 110%.

On to `C[C@@H](O)[C@H]1C(=O)N2C(C(=O)O)=C(S[C@@H]3CN[C@H](CNS(N)(=O)=O)C3)[C@H](C)[C@H]12` [Doripenem], for which the “Growth inhibition, Compound” value turned out to be 95%.

As to `CN(C)c1ccc(O)c2c1C[C@H]1C[C@H]3[C@H](N(C)C)C(O)=C(C(N)=O)C(=O)[C@@]3(O)C(O)=C1C2=O` [Minocycline hydrochloride], the “Growth inhibition, Compound” value was determined as 91%.

Regarding `Cc1cn([C@H]2C[C@H](N=[N+]=[N-])[C@@H](CO)O2)c(=O)[nH]c1=O` [Zidovudine], the “Growth inhibition, Compound” value came to 95%.

As for `CS(=O)(=O)c1ccc([C@@H](O)[C@@H](CO)NC(=O)C(Cl)Cl)cc1` [Thiamphenicol], the “Growth inhibition, Compound” value is recorded as 66%.

For the compound `Cc1ccc2c(Cl)cc(Cl)c(O)c2n1` [Chloquinan], the “Growth inhibition, Compound” value came to 119%.

In the case of `CCN(CC)C(=S)SSC(=S)N(CC)CC` [Disulfiram], the “Growth inhibition, Compound” value was determined as 78%.

For the compound `CC1(C)S[C@@H]2[C@H](NC(=O)C(C(=O)O)c3ccccc3)C(=O)N2[C@H]1C(=O)O` (stereo partly shown) [Carbenicillin disodium], the “Growth inhibition, Compound” value was 89%.

As for `Oc1ccc(Cl)cc1Cc1cc(Cl)ccc1O` [Dichlorophen], the “Growth inhibition, Compound” value was found to be 95%.

Take `CO/N=C(\C(=O)N[C@@H]1C(=O)N2C(C(=O)OCOC(=O)C(C)(C)C)=C(/C=C\c3scnc3C)CS[C@H]12)c1csc(N)n1` [Cefditoren pivoxil]: the “Growth inhibition, Compound” value is on record as 73%.

In the case of `CCn1cc(C(=O)O)c(=O)c2cc(F)c(N3CCNCC3)nc21` [Enoxacin], the “Growth inhibition, Compound” value is reported as 109%.

For `Cl.O=C1OC(CN2CCOCC2)CN1/N=C/c1ccc([N+](=O)[O-])o1` (stereo not shown) [Furaltadone hydrochloride], the “Growth inhibition, Compound” value is listed as 115%.

On to `Nc1ccc2cc3ccc(N)cc3nc2c1` [Proflavine Hemisulfate], for which the “Growth inhibition, Compound” value is listed as 54%.

As to `O=C(N[C@H](CO)[C@H](O)c1ccc([N+](=O)[O-])cc1)C(Cl)Cl` [Chloramphenicol], the “Growth inhibition, Compound” value was 109%.

Consider `CN(C)[C@@H]1C(O)=C(C(N)=O)C(=O)[C@@]2(O)C(O)=C3C(=O)c4c(O)cccc4[C@@](C)(O)[C@H]3[C@H](O)[C@@H]12` [Oxytetracycline Hydrochloride], for which the “Growth inhibition, Compound” value was 106%.

As to `CC1(C)S[C@@H]2[C@H](NC(=O)Cc3ccccc3)C(=O)N2[C@H]1C(=O)O` [Benzylpenicillin potassium], the “Growth inhibition, Compound” value is reported as 55%.

Take `Nc1nc(/C(=C/CC(=O)O)C(=O)N[C@@H]2C(=O)N3C(C(=O)O)=CCS[C@H]23)cs1.O.O` [Ceftibuten dihydrate]: the “Growth inhibition, Compound” value is listed as 84%.

Take `C=C1c2cccc(O)c2C(=O)C2=C(O)[C@]3(O)C(=O)C(C(N)=O)=C(O)[C@@H](N(C)C)[C@@H]3[C@@H](O)[C@H]12` [Methacycline hydrochloride]: the “Growth inhibition, Compound” value came out at 112%.

Consider `C[C@@H](O)[C@H]1C(=O)N2C(C(=O)[O-])=C([C@H]3CCCO3)S[C@H]12.[Na+]` [Faropenem sodium], for which the “Growth inhibition, Compound” value was 100%.

Take `CO[C@H]1/C=C/O[C@@]2(C)Oc3c(C)c(O)c4c(c3C2=O)C2=NC3(CCN(CC(C)C)CC3)NC2=C(NC(=O)/C(C)=C\C=C\[C@H](C)[C@H](O)[C@@H](C)[C@@H](O)[C@@H](C)[C@H](OC(C)=O)[C@@H]1C)C4=O` [Rifabutin]: the “Growth inhibition, Compound” value is 94%.

For `N[C@@H]1CN(c2c(F)cc3c(=O)c(C(=O)O)cn([C@@H]4C[C@@H]4F)c3c2Cl)CC12CC2.N[C@@H]1CN(c2c(F)cc3c(=O)c(C(=O)O)cn([C@@H]4C[C@@H]4F)c3c2Cl)CC12CC2.O.O.O` [Sitafloxacin Hydrate], the “Growth inhibition, Compound” value is given as 101%.

In the case of `Cc1cc(O)c(C(=O)N[C@@H](C(=O)N[C@@H]2C(=O)N3C(C(=O)O)=C(CSc4nnnn4C)CS[C@H]23)c2ccc(O)cc2)cn1` [Cefpiramide acid], the “Growth inhibition, Compound” value is given as 97%.

For `CO/N=C1\CN(c2nc3c(cc2F)c(=O)c(C(=O)O)cn3C2CC2)CC1CN` (stereo not shown) [Gemifloxacin mesylate], the “Growth inhibition, Compound” value turned out to be 105%.

With `NC(=O)[C@@H]1CC[C@@H]2CN1C(=O)N2OS(=O)(=O)O` [Avibactam sodium], the “Growth inhibition, Compound” value was 46%.

Turning to `CN(C)CCn1nnnc1SCC1=C(C(=O)O)N2C(=O)[C@@H](NC(=O)Cc3csc(N)n3)[C@H]2SC1` [Cefotiam hydrochloride], the “Growth inhibition, Compound” value is given as 105%.

As for `C=C[C@]1(C)C[C@@H](OC(=O)CS[C@@H]2C[C@H]3CC[C@@H](C2)N3C)[C@]2(C)[C@H](C)CC[C@]3(CCC(=O)[C@H]32)[C@@H](C)[C@@H]1O` [Retapamulin], the “Growth inhibition, Compound” value was 97%.

For the compound `CO[C@H]1/C=C/O[C@@]2(C)Oc3c(C)c(O)c4c(O)c(c(/C=N/N5CCN(C6CCCC6)CC5)c(O)c4c3C2=O)NC(=O)/C(C)=C\C=C\[C@H](C)[C@H](O)[C@@H](C)[C@@H](O)[C@@H](C)[C@H](OC(C)=O)[C@@H]1C` [Rifapentine], the “Growth inhibition, Compound” value was found to be 99%.

Consider `CO/N=C(\C(=O)N[C@@H]1C(=O)N2C(C(=O)O)=C(CSc3nnnn3C)CS[C@H]12)c1csc(N)n1.CO/N=C(\C(=O)N[C@@H]1C(=O)N2C(C(=O)O)=C(CSc3nnnn3C)CS[C@H]12)c1csc(N)n1.Cl` [Cefmenoxime hydrochloride], for which the “Growth inhibition, Compound” value was determined as 96%.

In the case of `CCN1CCN(C(=O)N[C@@H](C(=O)N[C@@H]2C(=O)N3[C@@H]2SC(C)(C)[C@@H]3C(=O)O)c2ccccc2)C(=O)C1=O` [piperacillin], the “Growth inhibition, Compound” value was 107%.
